From patent publication US9714250B2, “Crystalline forms of temozolomide and the method for preparing same” (Jiangsu Tasly Diyi Pharmaceutical Co., Ltd., priority 2013, dated 2017)

Columns and labels:
Format in all cases: physicochemical
[1] = Light exposure test (stability); settings: for Appearance and color / Content / Drying loss / Related substances: light intensity 4500±500Lx; for Related substances: HPLC
Experimental: (§1) In the following test, related substances were determined as follows: HPLC method was used and chromatographic conditions were as follows: C18 column using octadecylsilane bonded silica gel as the filler, isocratic elution using methanol: 0.5% glacial acetic acid solution (10:90) as the mobile phase, and detection wavelength was at 254 nm.
Crystalline form A of Temozolomide (Form A0 prepared by the method of EXAMPLE 1) was exposed under conditions of light intensity of 4500±500Lx, sampled and determined on the 5th and 10th day.
Crystalline form B of Temozolomide (Form B0 prepared by the method of EXAMPLE 6) was placed, exposed under conditions of light intensity of 4500±500Lx, sampled and determined on the 5th and 10th day.
Crystalline Form C of Temozolomide (Form C prepared by the method of EXAMPLE 14) was placed, exposed under conditions of light intensity of 4500±500Lx, sampled and determined on the 5th and 10th day.

[2] = High temperature test (stability); settings: for Appearance and color / Content / Drying loss / Related substances: 60° C. incubator; for Related substances: HPLC
Experimental: as §1
Crystalline form A of Temozolomide (Form A0 prepared by the method of EXAMPLE 1) was placed in 60° C. incubator, sampled and determined on the 5th and 10th day.
Crystalline Form B of Temozolomide (Form B0 prepared by the method of EXAMPLE 6) was placed in 60° C. incubator, sampled and determined on the 5th and 10th day.
Crystalline Form C of Temozolomide (Form C prepared by the method of EXAMPLE 14) was placed in 60° C. incubator, sampled and determined on the 5th and 10th day.

[3] = High humidity test (stability); settings: for Related substances: HPLC
Experimental: as §1
Crystalline Form A of Temozolomide (Form A0 prepared by the method of EXAMPLE 1) was placed in 25° C. incubator (relative humidity: 75±5%), sampled and determined on the 5th and 10th day.
Crystalline Form B of Temozolomide (Form B0 prepared by the method of EXAMPLE 6) was placed in 25° C. incubator (relative humidity: 75±5%), sampled and determined on the 5th and 10th day.
Crystalline Form C of Temozolomide (Form C prepared by the method of EXAMPLE 14) was placed in 25° C. incubator (relative humidity: 75±5%), sampled and determined on the 5th and 10th day.

[4] = Accelerated test (stability); settings: 40±2° C., relative humidity 75±5%; for Appearance and color / Content / Related substances: polyethylene film bag; for Related substances: HPLC
Experimental: as §1
Crystalline Form A of Temozolomide (Form A0 prepared by the method of EXAMPLE 1) was sealed by a polyethylene film bag, placed under conditions of 40±2° C. and a relative humidity of 75±5% for 6 months, sampled and determined at the end of the 1st,2nd, 3rd and 6th month.
Crystalline Form B of Temozolomide (Form B0 prepared by the method of EXAMPLE 6) was sealed with a polyethylene film bag and placed under conditions of 40±2° C. and a relative humidity of 75±5% for 6 months, sampled and determined at the end of the 1st, 2nd, 3rd and 6th month.
Crystalline Form C of Temozolomide (Form C prepared by the method of EXAMPLE 14) was sealed with a polyethylene film bag and placed under conditions of 40±2° C. and a relative humidity of 75±5% for 6 months, sampled and determined at the end of the 1st, 2nd, 3rd and 6th month.

[5] = Stability test, overall conclusions; settings: light exposure, high-temperature, high-humidity and accelerated tests
Experimental: as §1
It should be noted that each crystalline form of Form A, Form B and Form C has similar stability properties. Hereinafter, Form A0, Form B0 and Form C were chosen only for illustrative purpose.

[6] = 25° C., relative humidity 75±5%, 0th day
[7] = 25° C., relative humidity 75±5%, 5th day
[8] = 25° C., relative humidity 75±5%, 10th day

**Q.** Which results are given for `Cn1nnc2c(C(N)=O)ncn2c1=O` [Form A, Temozolomide]?
**A.** Stability in the light exposure test (conclusion) ([1]; 4500±500Lx, 10 days): stable; Appearance and color ([1]; 0th day): White powder; Content ([1]; 0th day): 99.94%; Drying loss ([1]; 0th day): 0.35%; Related substances ([1]; 0th day): Not detected; Appearance and color ([1]; 5th day): White powder; Content ([1]; 5th day): 99.93%; Drying loss ([1]; 5th day): 0.33%; Related substances ([1]; 5th day): Not detected; Appearance and color ([1]; 10th day): White powder; Content ([1]; 10th day): 99.81%; Drying loss ([1]; 10th day): 0.39%; Related substances ([1]; 10th day): Not detected; Appearance and color ([2]; 0th day): White powder; Content ([2]; 0th day): 99.94%; Drying loss ([2]; 0th day): 0.41%; Related substances ([2]; 0th day): Not detected; Appearance and color ([2]; 5th day): White powder; Content ([2]; 5th day): 99.63%; Drying loss ([2]; 5th day): 0.38%; Related substances ([2]; 5th day): Not detected; Appearance and color ([2]; 10th day): White powder; Content ([2]; 10th day): 99.31%; Drying loss ([2]; 10th day): 0.34%; Related substances ([2]; 10th day): Not detected; Stability in the high-temperature test (conclusion) ([2]; 60° C., 10 days): stable; Stability in the high-humidity test (conclusion) ([3]; 25° C., relative humidity 75±5%, 10 days): stable; Appearance and color [3, 6]: White powder; Content [3, 6]: 99.94%; Weight gain of moisture absorption [3, 6]: 0%; Related substances [3, 6]: Not detected; Appearance and color [3, 7]: White powder; Content [3, 7]: 99.73%; Weight gain of moisture absorption [3, 7]: 0.32%; Related substances [3, 7]: Not detected; Appearance and color [3, 8]: White powder; Content [3, 8]: 99.52%; Weight gain of moisture absorption [3, 8]: 0.51%; Related substances [3, 8]: Not detected; Weight gain of moisture absorption (trend) ([3]; under the high-humidity condition): slightly increased; Stability in the accelerated test (conclusion) ([4]; 6 months): stable; Appearance and color ([4]; 0th month): White powder; Content ([4]; 0th month): 99.94%; Related substances ([4]; 0th month): Not detected; Appearance and color ([4]; 1st month): White powder; Content ([4]; 1st month): 99.81%; Related substances ([4]; 1st month): Not detected; Appearance and color ([4]; 2nd month): White powder; Content ([4]; 2nd month): 99.64%; Related substances ([4]; 2nd month): Not detected; Appearance and color ([4]; 3rd month): White powder; Content ([4]; 3rd month): 99.92%; Related substances ([4]; 3rd month): Not detected; Appearance and color ([4]; 6th month): White powder; Content ([4]; 6th month): 99.62%; Related substances ([4]; 6th month): Not detected; Change in the appearance and color, the drying loss, the content and the related substances [5]: no obvious change
